Reference: patent publication US20130196954A1, “METHOD OF TREATING ACNE” (priority 2010, published 2013)

Legend:
[1] = Phase 2 clinical study, safety (adverse events); assay type: in vivo, human
Method: A phase 2, multi-center, randomized, double-blind, parallel group, placebo-controlled study was conducted. The treatments were (1) 40 mg doxycycline tablet containing 30 mg IR and 10 mg DR (CD2575/101); (2) doxycycline 100 mg capsules; and (3) placebos (double dummy), which were administered orally once daily.
Patients having moderate or severe acne (25 to 75 inflammatory lesions on the face (including the nose) were subjects in the study. Total 660 subjects (220/group) were divided in a 1:1:1 randomization for the three treatments. The treatments lasted 16 weeks.
The safety studies included standard safety reporting. Adverse events of special interest included phototoxicity; pseudotumor cerebri; and pseudomembranous colitis. Vital signs were observed by the investigator at each visit. Lab tests were conducted at 0, 8 & 16 weeks.

moderate or severe acne = test: Phase 2 randomized, double-blind, placebo-controlled clinical study, efficacy; assay type: in vivo, human; conditions: ITT; for Reduction from baseline in inflammatory lesion count / Success Rate (IGA clear or almost clear): oral once daily
Method: As used herein, “success rate” means the percentage of subjects who achieve a score of “clear” or “almost clear” by Investigator's Global Assessment (IGA) (Inflammatory): A phase 2, multi-center, randomized, double-blind, parallel group, placebo-controlled study was conducted. The treatments were (1) 40 mg doxycycline tablet containing 30 mg IR and 10 mg DR (CD2575/101); (2) doxycycline 100 mg capsules; and (3) placebos (double dummy), which were administered orally once daily. Patients having moderate or severe acne (25 to 75 inflammatory lesions on the face (including the nose) were subjects in the study. Total 660 subjects (220/group) were divided in a 1:1:1 randomization for the three treatments. The treatments lasted 16 weeks. The following were measured for efficacy studies: change from baseline to week 16 (LOCF, ITT) in inflammatory lesion counts (primary endpoint); success rate at week 16 (LOCF, ITT); percent change in inflammatory lesion counts from baseline to week 16 (LOCF, ITT); percent change in total lesion counts from baseline to week 16 (LOCF, ITT); change from baseline to week 16 (LOCF, ITT) in non-inflammatory lesion counts; global assessment for inflammatory lesions of truncal acne at baseline, week 12, and week 16/ET visit, etc. The investigator evaluated the subject's acne at every study visit using the Investigator's Global Assessment (Inflammatory) scale as that described above. The IGA scale in this study focused on inflammatory lesions as the mode of study drug action in acne vulgaris is primarily anti-inflammatory. Onset of efficacy was to be determined for the change in inflammatory lesions and for the success rate, by analyzing time points earlier than week 16

[2] = N = 216 (40 mg), N = 223 (100 mg)

Compound: C[C@H]1c2cccc(O)c2C(=O)C2=C(O)[C@]3(O)C(=O)C(C(N)=O)=C(O)[C@@H](N(C)C)[C@@H]3[C@@H](O)[C@@H]21 [Doxycycline 100 mg, doxycycline]
- drug related AEs (nausea, vomiting & headaches) ([1]; 16 weeks once daily oral): 38
- Total Number of AE(s) ([1]; 16 weeks once daily oral, N = 216 (40 mg), N = 223 (100 mg)): 50
- Abdominal discomfort, number of subjects [1, 2]: 4
- Abdominal discomfort, percent of subjects [1, 2]: (1.8%)
- Dizziness, number of subjects [1, 2]: 1
- Dizziness, percent of subjects [1, 2]: (0.4%)
- Headache, number of subjects [1, 2]: 6
- Headache, percent of subjects [1, 2]: (2.7%)
- Nausea, number of subjects [1, 2]: 12
- Nausea, percent of subjects [1, 2]: (5.4%)
- Tinnitus, number of subjects [1, 2]: 0
- Total Number of Subjects with AE(s), number [1, 2]: 38
- Total Number of Subjects with AE(s), percent [1, 2]: (17.0%)
- Urticaria, number of subjects [1, 2]: 2
- Urticaria, percent of subjects [1, 2]: (0.9%)
- Vomiting, number of subjects [1, 2]: 14
- Vomiting, percent of subjects [1, 2]: (6.3%)
- Vulvovaginal mycotic infection, number of subjects [1, 2]: 1
- Vulvovaginal mycotic infection, percent of subjects [1, 2]: (0.4%)
- Median % Change in Inflammatory Lesion Count (moderate or severe acne; Week 12 (LOCF)): −46.7%
- Median % change in Total Lesion Count (moderate or severe acne; Week 12 (LOCF)): −30.6%
- Reduction in inflammatory lesion count, delta vs placebo (moderate or severe acne; Week 12 (LOCF)): 0.3
- Success Rate, delta vs placebo (moderate or severe acne; Week 12 (LOCF)): −1.4
- Reduction from baseline in inflammatory lesion count (moderate or severe acne; Week 12 (LOCF)): 12.2 (0.604)
- Success Rate (IGA clear or almost clear) (moderate or severe acne; Week 12 (LOCF)): 5.4% (0.536)
- Median % Change in Inflammatory Lesion Count (moderate or severe acne; Week 16 (LOCF)): −47.3%
- Median % change in Total Lesion Count (moderate or severe acne; Week 16 (LOCF)): −35.9%
- Reduction in inflammatory lesion count, delta vs placebo (moderate or severe acne; Week 16 (LOCF)): 0.3
- Success Rate, delta vs placebo (moderate or severe acne; Week 16 (LOCF)): 6.1
- Reduction from baseline in inflammatory lesion count (moderate or severe acne; Week 16 (LOCF)): 12.9 (0.595)
- Success Rate (IGA clear or almost clear) (moderate or severe acne; Week 16 (LOCF)): 13.8% (0.035)
